Measurements from US11000033B2, “Ketone or oxime compound, and herbicide” (NISSAN CHEMICAL CORPORATION, priority 2014, dated 2021).

Columns and labels:
Format in all cases: in vivo
Stellaria media = assay: Test Example 5: herbicidal effect by foliage application, plastic box (symbol P); details: 320 g/ha, 3 weeks after application
Summary of the method: (§1)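 Sowing in sterilized diluvial soil, 14 days' greenhouse growth at 25° C. to 30° C., then uniform small-sprayer foliar application of aqueous emulsion dilution; plants scored three weeks afterwards.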

Monochoria vaginalis = assay: Test Example 1: herbicidal activity, application before weed generation in submerged conditions (symbol C); details: application herbicide amount 320 g/ha
Summary of the method: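 Flooded alluvial soil (4 cm water) was mixed-sown with the three weed species, and 2.5-leaf rice seedlings were transplanted. On sowing day, a water-diluted emulsion at a predetermined rate was applied to the water surface. After 3 weeks in a 25–30 °C greenhouse, effect was scored 0–5.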

Lolium multiflorum Lam. = assay: Test Example 5: herbicidal effect by foliage application, plastic box (symbol K); details: 320 g/ha, 3 weeks after application
Summary of the method: as §1

Avena fatua = assay: Test Example 4: herbicidal effect by soil treatment (symbol I); details: application herbicide amount 320 g/ha
Summary of the method: (§2)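 Seeds were sown in sterilized diluvial soil, covered with about 1.5 cm of soil, and the soil surface was sprayed with a water-diluted emulsion of the compound at a predetermined rate. Plants grew in a greenhouse at 25° C. to 30° C.; effects were scored visually 3 weeks after application.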

Amaranthus retroflexus = assay: Test Example 5: herbicidal effect by foliage application, plastic box (symbol N); details: 320 g/ha, 3 weeks after application
Summary of the method: as §1

Abutilon theophrasti = assay: Test Example 5: herbicidal effect by foliage application, plastic box (symbol M); details: 320 g/ha, 3 weeks after application
Summary of the method: as §1

transplanted rice plant = assay: Test Example 1: effect on crop, application before weed generation in submerged conditions (symbol a); details: application herbicide amount 320 g/ha
Summary of the method: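 Alluvial soil pots flooded to 4 cm water, sown with Echinochloa oryzacola, Scirpus juncoides and Monochoria vaginalis, then transplanted with 2.5 leaf stage rice seedlings; pre-emergence application. Greenhouse 25° C. to 30° C.; scored 0–5 by herbicidal ratio 3 weeks after application.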

Setaria viridis = assay: Test Example 4: herbicidal effect by soil treatment (symbol G); details: application herbicide amount 320 g/ha
Summary of the method: as §2

Alopecurus myosuroides = assay: Test Example 4: herbicidal effect by soil treatment (symbol J); details: application herbicide amount 320 g/ha
Summary of the method: as §2

rapeseed = assay: Test Example 5: effect on crop by foliage application, plastic box (symbol g); details: 320 g/ha, 3 weeks after application
Summary of the method: (§3)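 Seeds were sown in spots in sterilized diluvial soil held in a plastic box 21 cm × 13 cm × 7 cm deep, covered with about 1.5 cm of soil, and grown in a greenhouse at 25° C. to 30° C.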

Chenopodium album = assay: Test Example 5: herbicidal effect by foliage application, plastic box (symbol O); details: 320 g/ha, 3 weeks after application
Summary of the method: as §1

[1] = system: Echinochloa crus-galli var. crus-galli; assay: Test Example 5: herbicidal effect by foliage application, plastic box (symbol H); details: 320 g/ha, 3 weeks after application
Summary of the method: as §1

Apera spica-venti = assay: Test Example 4: herbicidal effect by soil treatment (symbol L); details: application herbicide amount 320 g/ha
Summary of the method: as §2

Leptochloa chinensis = assay: Test Example 3: herbicidal effect by foliage application, Wagner pot (symbol D); details: application herbicide amount 320 g/ha
Summary of the method: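 Weeds and rice were sown in alluvial soil under 0.1–0.5 cm of standing water and grown for 14 days in a 25–30 °C greenhouse. An emulsion of the compound, diluted in water to a set dose, was sprayed evenly onto the foliage. Effect was scored against fixed criteria 3 weeks after treatment.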

corn = assay: Test Example 5: effect on crop by foliage application, plastic box (symbol c); details: 320 g/ha, 3 weeks after application
Summary of the method: as §3

CON=CC(C)(C)C1CC(O)=C(c2c(C)cc(C)cc2C)C1=O (centres unmarked) [1-030]
P: Stellaria media, herbicidal effect grade (Stellaria media): 0 (Herbicidal ratio of 5% or lower (almost no effect))
Herbicidal effect grade, C: Monochoria vaginalis (Monochoria vaginalis): 0 (Herbicidal ratio of 5% or lower (almost no effect))
K: Lolium multiflorum Lam., herbicidal effect grade (Lolium multiflorum Lam.): 5 (Herbicidal ratio of 90% or more (almost completely withered))
I (Avena fatua) herbicidal effect grade (Avena fatua): 0 (Herbicidal ratio of 5% or lower (almost no effect))
N: Amaranthus retroflexus, herbicidal effect grade (Amaranthus retroflexus): 0 (Herbicidal ratio of 5% or lower (almost no effect))
M: Abutilon theophrasti, herbicidal effect grade (Abutilon theophrasti): 0 (Herbicidal ratio of 5% or lower (almost no effect))
Effect grade on crop, a: transplanted rice plant (transplanted rice plant): 1 (Herbicidal ratio of 5% or higher and lower than 20%)
G (Setaria viridis) herbicidal effect grade (Setaria viridis): 2 (Herbicidal ratio of 20% or higher and lower than 40%)
J (Alopecurus myosuroides) herbicidal effect grade (Alopecurus myosuroides): 3 (Herbicidal ratio of 40% or higher and lower than 70%)
g: rapeseed, effect on crop grade (rapeseed): 3 (Herbicidal ratio of 40% or higher and lower than 70%)
O: Chenopodium album, herbicidal effect grade (Chenopodium album): 0 (Herbicidal ratio of 5% or lower (almost no effect))
H: Echinochloa crus-galli var. crus-galli, herbicidal effect grade [1]: 4 (Herbicidal ratio of 70% or higher and lower than 90%)
L (Apera spica-venti) herbicidal effect grade (Apera spica-venti): 3 (Herbicidal ratio of 40% or higher and lower than 70%)
herbicidal effect on D (Leptochloa chinensis), grade 0-5 (Leptochloa chinensis): 5 (Herbicidal ratio of 90% or more (almost completely withered))
c: corn, effect on crop grade (corn): 1 (Herbicidal ratio of 5% or higher and lower than 20%)

CON=C(C)CC1CC(OC(=O)COc2ccc(Cl)cc2)=C(c2c(C)cc(C)cc2C)C1=O (centres unmarked) [1-044]
P: Stellaria media, herbicidal effect grade (Stellaria media): 0 (Herbicidal ratio of 5% or lower (almost no effect))
Herbicidal effect grade, C: Monochoria vaginalis (Monochoria vaginalis): 4 (Herbicidal ratio of 70% or higher and lower than 90%)
K: Lolium multiflorum Lam., herbicidal effect grade (Lolium multiflorum Lam.): 5 (Herbicidal ratio of 90% or more (almost completely withered))
I (Avena fatua) herbicidal effect grade (Avena fatua): 2 (Herbicidal ratio of 20% or higher and lower than 40%)
N: Amaranthus retroflexus, herbicidal effect grade (Amaranthus retroflexus): 2 (Herbicidal ratio of 20% or higher and lower than 40%)
M: Abutilon theophrasti, herbicidal effect grade (Abutilon theophrasti): 4 (Herbicidal ratio of 70% or higher and lower than 90%)
Effect grade on crop, a: transplanted rice plant (transplanted rice plant): 5 (Herbicidal ratio of 90% or more (almost completely withered))
G (Setaria viridis) herbicidal effect grade (Setaria viridis): 5 (Herbicidal ratio of 90% or more (almost completely withered))
J (Alopecurus myosuroides) herbicidal effect grade (Alopecurus myosuroides): 5 (Herbicidal ratio of 90% or more (almost completely withered))
g: rapeseed, effect on crop grade (rapeseed): 4 (Herbicidal ratio of 70% or higher and lower than 90%)
H: Echinochloa crus-galli var. crus-galli, herbicidal effect grade [1]: 5 (Herbicidal ratio of 90% or more (almost completely withered))
L (Apera spica-venti) herbicidal effect grade (Apera spica-venti): 5 (Herbicidal ratio of 90% or more (almost completely withered))
herbicidal effect on D (Leptochloa chinensis), grade 0-5 (Leptochloa chinensis): 5 (Herbicidal ratio of 90% or more (almost completely withered))
c: corn, effect on crop grade (corn): 4 (Herbicidal ratio of 70% or higher and lower than 90%)

CON=C(C)CC1CC(OC(=O)C2(C)CC2(Cl)Cl)=C(c2c(C)cc(C)cc2C)C1=O (centres unmarked) [1-036]
Herbicidal effect grade, C: Monochoria vaginalis (Monochoria vaginalis): 1 (Herbicidal ratio of 5% or higher and lower than 20%)
K: Lolium multiflorum Lam., herbicidal effect grade (Lolium multiflorum Lam.): 5 (Herbicidal ratio of 90% or more (almost completely withered))
I (Avena fatua) herbicidal effect grade (Avena fatua): 5 (Herbicidal ratio of 90% or more (almost completely withered))
N: Amaranthus retroflexus, herbicidal effect grade (Amaranthus retroflexus): 4 (Herbicidal ratio of 70% or higher and lower than 90%)
M: Abutilon theophrasti, herbicidal effect grade (Abutilon theophrasti): 4 (Herbicidal ratio of 70% or higher and lower than 90%)
Effect grade on crop, a: transplanted rice plant (transplanted rice plant): 5 (Herbicidal ratio of 90% or more (almost completely withered))
G (Setaria viridis) herbicidal effect grade (Setaria viridis): 5 (Herbicidal ratio of 90% or more (almost completely withered))
J (Alopecurus myosuroides) herbicidal effect grade (Alopecurus myosuroides): 5 (Herbicidal ratio of 90% or more (almost completely withered))
g: rapeseed, effect on crop grade (rapeseed): 4 (Herbicidal ratio of 70% or higher and lower than 90%)
O: Chenopodium album, herbicidal effect grade (Chenopodium album): 2 (Herbicidal ratio of 20% or higher and lower than 40%)
H: Echinochloa crus-galli var. crus-galli, herbicidal effect grade [1]: 5 (Herbicidal ratio of 90% or more (almost completely withered))
L (Apera spica-venti) herbicidal effect grade (Apera spica-venti): 5 (Herbicidal ratio of 90% or more (almost completely withered))
herbicidal effect on D (Leptochloa chinensis), grade 0-5 (Leptochloa chinensis): 5 (Herbicidal ratio of 90% or more (almost completely withered))
c: corn, effect on crop grade (corn): 1 (Herbicidal ratio of 5% or higher and lower than 20%)

CON=C(C)CC1CC(OC(=O)C(C)(C)F)=C(c2c(C)cc(C)cc2C)C1=O (centres unmarked) [1-039]
P: Stellaria media, herbicidal effect grade (Stellaria media): 3 (Herbicidal ratio of 40% or higher and lower than 70%)
Herbicidal effect grade, C: Monochoria vaginalis (Monochoria vaginalis): 2 (Herbicidal ratio of 20% or higher and lower than 40%)
K: Lolium multiflorum Lam., herbicidal effect grade (Lolium multiflorum Lam.): 5 (Herbicidal ratio of 90% or more (almost completely withered))
I (Avena fatua) herbicidal effect grade (Avena fatua): 1 (Herbicidal ratio of 5% or higher and lower than 20%)
N: Amaranthus retroflexus, herbicidal effect grade (Amaranthus retroflexus): 4 (Herbicidal ratio of 70% or higher and lower than 90%)
M: Abutilon theophrasti, herbicidal effect grade (Abutilon theophrasti): 4 (Herbicidal ratio of 70% or higher and lower than 90%)
Effect grade on crop, a: transplanted rice plant (transplanted rice plant): 5 (Herbicidal ratio of 90% or more (almost completely withered))
G (Setaria viridis) herbicidal effect grade (Setaria viridis): 5 (Herbicidal ratio of 90% or more (almost completely withered))
J (Alopecurus myosuroides) herbicidal effect grade (Alopecurus myosuroides): 5 (Herbicidal ratio of 90% or more (almost completely withered))
g: rapeseed, effect on crop grade (rapeseed): 4 (Herbicidal ratio of 70% or higher and lower than 90%)
H: Echinochloa crus-galli var. crus-galli, herbicidal effect grade [1]: 5 (Herbicidal ratio of 90% or more (almost completely withered))
L (Apera spica-venti) herbicidal effect grade (Apera spica-venti): 5 (Herbicidal ratio of 90% or more (almost completely withered))
herbicidal effect on D (Leptochloa chinensis), grade 0-5 (Leptochloa chinensis): 5 (Herbicidal ratio of 90% or more (almost completely withered))
c: corn, effect on crop grade (corn): 4 (Herbicidal ratio of 70% or higher and lower than 90%)

CON=C(C)CC1CC(OC(=O)COc2ccc(F)cc2)=C(c2c(C)cc(C)cc2C)C1=O (centres unmarked) [1-073]
P: Stellaria media, herbicidal effect (criteria 0-5) (Stellaria media): 2 (Herbicidal ratio of 20% or higher and lower than 40%)
Herbicidal effect grade, C: Monochoria vaginalis (Monochoria vaginalis): 1 (Herbicidal ratio of 5% or higher and lower than 20%)
K: Lolium multiflorum Lam., herbicidal effect (criteria 0-5) (Lolium multiflorum Lam.): 5 (Herbicidal ratio of 90% or more (almost completely withered))
I (Avena fatua) herbicidal effect grade (Avena fatua): 4 (Herbicidal ratio of 70% or higher and lower than 90%)
N: Amaranthus retroflexus, herbicidal effect (criteria 0-5) (Amaranthus retroflexus): 2 (Herbicidal ratio of 20% or higher and lower than 40%)
M: Abutilon theophrasti, herbicidal effect (criteria 0-5) (Abutilon theophrasti): 4 (Herbicidal ratio of 70% or higher and lower than 90%)
Effect grade on crop, a: transplanted rice plant (transplanted rice plant): 5 (Herbicidal ratio of 90% or more (almost completely withered))
G (Setaria viridis) herbicidal effect grade (Setaria viridis): 5 (Herbicidal ratio of 90% or more (almost completely withered))
J (Alopecurus myosuroides) herbicidal effect grade (Alopecurus myosuroides): 5 (Herbicidal ratio of 90% or more (almost completely withered))
g: rapeseed, effect on crop (criteria 0-5) (rapeseed): 4 (Herbicidal ratio of 70% or higher and lower than 90%)
H: Echinochloa crus-galli var. crus-galli, herbicidal effect (criteria 0-5) [1]: 5 (Herbicidal ratio of 90% or more (almost completely withered))
L (Apera spica-venti) herbicidal effect grade (Apera spica-venti): 5 (Herbicidal ratio of 90% or more (almost completely withered))
herbicidal effect on D (Leptochloa chinensis), grade 0-5 (Leptochloa chinensis): 5 (Herbicidal ratio of 90% or more (almost completely withered))
c: corn, effect on crop (criteria 0-5) (corn): 4 (Herbicidal ratio of 70% or higher and lower than 90%)
